Results: publication PMC6100079, “Design, Synthesis, and Evaluation of Homochiral Peptides Containing Arginine and Histidine as Molecular Transporters” (Molecules : A Journal of Synthetic Chemistry and Natural …, 2018)
Ends that are not written are not given here. Peptide text beside a SMILES is read from it. * marks the point of attachment. Oleoyl = CCCCCCCC/C=C\CCCCCCCC(=O)*; HOOC(CH2)6CO = O=C(O)CCCCCCC(=O)*; Palmitoyl = CCCCCCCCCCCCCCCC(=O)*; Myristoyl = CCCCCCCCCCCCCC(=O)*; Lauroyl = CCCCCCCCCCCC(=O)*

Columns and labels:
[1] = system: human ovarian adenocarcinoma (SK-OV-3) cells; experiment: Cytotoxicity (MTS proliferation assay) of peptides in SK-OV-3 cells; format: cell-based
Procedure: (§1) All bioassays were performed in triplicate.
(§2) The linear and cyclic peptides at concentrations (5, 10, 25, 50 and 100 µM) were added to the cells and incubated at 37 °C with 5% carbon dioxide for 72 h. After 72 h of incubation, the pH of media were tested. […] Then 20 µL of MTS reagent was added to each well. […] The […] of the formazan product was measured at 490 nm using a Spectra Max M2 microplate spectrophotometer. The percentage of cell survival was calculated as [(OD value of cells treated with the test mixture of compounds) − (OD value of culture medium)]/[(OD value of control cells) − (OD value of culture medium)] × 100%.

[2] = system: human leukemia cancer cell line (CCRF-CEM); experiment: Cytotoxicity (MTS proliferation assay) of peptides in CCRF-CEM cells; format: cell-based
Procedure: as §1, §2

SK-OV-3 cells = experiment: Antiproliferative assay of anticancer drugs using C20-(HR)4 in SK-OV-3 cells; format: cell-based, human; settings: SK-OV-3 (for doxorubicin, epirubicin per b1 and b46; not restated for the 1.5 fold sentence); drug 5 µM + C20-(HR)4 50 µM; 72 h; vs drug alone
Procedure: as §1

CCRF-CEM cells = experiment: Antiproliferative assay of anticancer drugs using C20-(HR)4 in CCRF-CEM cells; settings: drug 5 µM + C20-(HR)4 50 µM, 72 h, vs drug alone
[3] = SK-OV-3, up to / at 50 µM peptide

## N=C(N)NCCC[C@H](NC(=O)[C@H](Cc1c[nH]cn1)NC(=O)[C@H](CCCNC(=N)N)NC(=O)[C@H](Cc1c[nH]cn1)NC(=O)[C@H](CCCNC(=N)N)NC(=O)[C@H](Cc1c[nH]cn1)NC(=O)[C@H](CCCNC(=N)N)NC(=O)[C@H](Cc1c[nH]cn1)NC(=O)CCCCCCC(=O)O)C(=O)O [C8-(HR)4] ({HOOC(CH2)6CO}-HRHRHRHR-OH)
[1]; SK-OV-3, 100 µM peptide
  cytotoxicity (in words): mild cytotoxicity
[1]; [3]
  cytotoxicity (in words): not toxic
[1]; SK-OV-3, up to / at 50 µM peptide, listed as C8
  cytotoxicity (in words): did not show cytotoxicity
[2]; 100 µM peptide
  cytotoxicity (in words): mild cytotoxicity
[2]; up to / at 50 µM peptide
  cytotoxicity (in words): not toxic
[2]; up to / at 50 µM peptide, listed as C8
  cytotoxicity (in words): did not show cytotoxicity

## CCCCCCCCCCCC(=O)N[C@@H](Cc1c[nH]cn1)C(=O)N[C@@H](CCCNC(=N)N)C(=O)N[C@@H](Cc1c[nH]cn1)C(=O)N[C@@H](CCCNC(=N)N)C(=O)N[C@@H](Cc1c[nH]cn1)C(=O)N[C@@H](CCCNC(=N)N)C(=O)N[C@@H](Cc1c[nH]cn1)C(=O)N[C@@H](CCCNC(=N)N)C(=O)O [C12-(HR)4] (Lauroyl-HRHRHRHR-OH)
[1]; SK-OV-3, 100 µM peptide
  cytotoxicity (in words): mild cytotoxicity
[1]; [3]
  cytotoxicity (in words): not toxic
[1]; SK-OV-3, up to / at 50 µM peptide, listed as C12
  cytotoxicity (in words): did not show cytotoxicity
[2]; 100 µM peptide
  cytotoxicity (in words): mild cytotoxicity
[2]; up to / at 50 µM peptide
  cytotoxicity (in words): not toxic
[2]; up to / at 50 µM peptide, listed as C12
  cytotoxicity (in words): did not show cytotoxicity

## CCCCCCCCCCCCCC(=O)N[C@@H](Cc1c[nH]cn1)C(=O)N[C@@H](CCCNC(=N)N)C(=O)N[C@@H](Cc1c[nH]cn1)C(=O)N[C@@H](CCCNC(=N)N)C(=O)N[C@@H](Cc1c[nH]cn1)C(=O)N[C@@H](CCCNC(=N)N)C(=O)N[C@@H](Cc1c[nH]cn1)C(=O)N[C@@H](CCCNC(=N)N)C(=O)O [C14-(HR)4] (Myristoyl-HRHRHRHR-OH)
[1]; SK-OV-3, 100 µM peptide
  cytotoxicity (in words): mild cytotoxicity
[1]; [3]
  cytotoxicity (in words): not toxic
[1]; SK-OV-3, up to / at 50 µM peptide, listed as C14
  cytotoxicity (in words): did not show cytotoxicity
[2]; 100 µM peptide
  cytotoxicity (in words): mild cytotoxicity
[2]; up to / at 50 µM peptide
  cytotoxicity (in words): not toxic
[2]; up to / at 50 µM peptide, listed as C14
  cytotoxicity (in words): did not show cytotoxicity

## CCCCCCCCCCCCCCCC(=O)N[C@@H](Cc1c[nH]cn1)C(=O)N[C@@H](CCCNC(=N)N)C(=O)N[C@@H](Cc1c[nH]cn1)C(=O)N[C@@H](CCCNC(=N)N)C(=O)N[C@@H](Cc1c[nH]cn1)C(=O)N[C@@H](CCCNC(=N)N)C(=O)N[C@@H](Cc1c[nH]cn1)C(=O)N[C@@H](CCCNC(=N)N)C(=O)O [C16-(HR)4] (Palmitoyl-HRHRHRHR-OH)
[1]; SK-OV-3 (sentence speaks of both cell lines), 50 and 100 µM peptide, respectively, 72 h, MTS
  reduction in cell viability: 35–70%
[1]; SK-OV-3, 10 µM peptide, 72 h, MTS
  cytotoxic effect / reduction of proliferation: 0%
[1]; SK-OV-3, 50 µM peptide
  reduction of proliferation: 11%
[1]; [3]
  cytotoxicity (in words): significant reduction in the cell viability
[2]; 10 µM peptide, 72 h, MTS
  cytotoxic effect: 0%
[2]; up to / at 50 µM peptide
  cytotoxicity (in words): significant reduction in the cell viability

## CCCCCCCC/C=C\CCCCCCCC(=O)N[C@@H](Cc1c[nH]cn1)C(=O)N[C@@H](CCCNC(=N)N)C(=O)N[C@@H](Cc1c[nH]cn1)C(=O)N[C@@H](CCCNC(=N)N)C(=O)N[C@@H](Cc1c[nH]cn1)C(=O)N[C@@H](CCCNC(=N)N)C(=O)N[C@@H](Cc1c[nH]cn1)C(=O)N[C@@H](CCCNC(=N)N)C(=O)O [C18-(HR)4] (Oleoyl-HRHRHRHR-OH)
[1]; SK-OV-3, 100 µM peptide
  cytotoxicity (in words): mild cytotoxicity
[1]; [3]
  cytotoxicity (in words): not toxic
[1]; SK-OV-3, up to / at 50 µM peptide, listed as C18
  cytotoxicity (in words): did not show cytotoxicity
[2]; 100 µM peptide
  cytotoxicity (in words): mild cytotoxicity
[2]; up to / at 50 µM peptide
  cytotoxicity (in words): not toxic
[2]; up to / at 50 µM peptide, listed as C18
  cytotoxicity (in words): did not show cytotoxicity

## COc1cc([C@@H]2c3cc4c(cc3[C@@H](O[C@@H]3O[C@@H]5CO[C@@H](C)O[C@H]5[C@H](O)[C@H]3O)[C@H]3COC(=O)[C@H]23)OCO4)cc(OC)c1O [etoposide]
SK-OV-3 cells
  improvement of the drug's anti-proliferation potency / toxicity upon loading (physical mixture) with C20-(HR)4: one and half
CCRF-CEM cells
  improvement of the drug's anti-proliferating potency by C20-(HR)4: did not improve

## CC(=O)O[C@H]1C(=O)[C@@]2(C)[C@H]([C@H](OC(=O)c3ccccc3)[C@]3(O)C[C@H](OC(=O)[C@H](O)[C@@H](NC(=O)c4ccccc4)c4ccccc4)C(C)=C1C3(C)C)[C@]1(OC(C)=O)CO[C@@H]1C[C@@H]2O [paclitaxel]
CCRF-CEM cells
  improvement of the drug's anti-proliferating potency by C20-(HR)4: did not improve

## Ac-HRHRHRHR [C2-(HR)4]
[1]; [3]
  cytotoxicity (in words): not toxic
[2]; up to / at 50 µM peptide
  cytotoxicity (in words): not toxic
